# Experimental data taken from patent US8658677B2, “Pyridyl-2-methylamino compounds, compositions and uses thereof” (Aria Neurosciences Inc., priority 2011, dated 2014).
# Entries after “also recorded” stand apart in the source; their conditions may differ.
# Key:
# Aβ40 [1] = target: T1, Aβ40 (Homo sapiens, UniProt P05067); experiment: Oligomerization assay; assay type: biochemical; details: 100 μM Aβ40, 10 μM compound, 24 h; for amount of oligomers on SDS-PAGE: lanes 3-5
# T1 construct: host or cells: chemical solid-phase peptide synthesis (no expression host)
# Method: (§1) […] monomerized synthetic Aβ40 was incubated in 0.1M Tris pH 7.0, T=37° C. for 8 days in the presence of 0-100 μM concentration of compounds. […] An arrow indicates Aβ monomers clustered in ill developed protofibril. (C) Oligomerization assay. ARN4261 and ARN4224 reduced the amount of Aβ oligomers by 78% and 74%, respectively p<0.001. A compound 69b (GKLVFNmgA) was used as a positive control. 69b is homologous to Aβ sequence 17-21 and contains N-methyl glycine (Nmg), which renders it capable of anti-fibrillization and anti-oligomerization effect. (D) Principle of oligomerization assay. 100 μM Aβ40 was aggregated alone or with the addition of 10 μM of tested compounds [1:10 compound: Ab ratio] for 24 h in conditions promoting oligomers assembly, i.e., DMEM/F-12 medium+0.2% SDS, T=4° C. Prior to SDS-PAGE in non-reducing conditions samples were treated with glutaraldehyde. A strong smear of Aβ oligomers is seen between 37 and 70 KDa markers (arrows) in lane 2, and a dense band below the 25 KDa marker reflects Aβ monomers non-dissociated by 10% polyacrylamide gel. No oligomers above 37 KDa marker are seen in lane 1 containing only Aβ monomers run as a control. […] (E) TEM of Aβ oligomers. […] Yellow arrowhead indicates smaller oligomers.
# Aβ40 [2] = target: T1, Aβ40; experiment: Thioflavin-T fibrillization assay; assay type: biochemical
# Text: Synthetic Aβ 1-40 peptide (sequence: […]) was synthesized at the W.M. Keck Foundation Facility (Yale University, New Haven, Conn.) by solid-phase technique on a p-methyl-benzhydrylamine resin, using a Biosearch SAM 2 synthesizer and purified by high performance liquid chromatography (HPLC) with the use of a reverse-phase support medium (Delta-Bondapak) on a 0.78×30 cm column with a 0-66% linear gradient of acetonitrile in 0.1% (v/v) trifluroacetic acid, as previously described. The peptide content of the eluate was monitored by measurement of its absorption at 214 nm. To verify the sequence and purity of the peptide, linear, time-of-flight mass spectrometry was performed at the Skirball Institute at New York University. For aggregation studies the peptide was diluted in 1,1,1,3,3,3-hexafluoro-2-propanol (HFIP; Sigma St. Loius, Mo.) at a concentration of 10 mM/mL, aliquoted and lyophilized. HFIP treatment renders peptides monomeric with minimal β-sheet content. Lyophilized peptides were stored at −80° C. and resuspended immediately prior to each experiment in the appropriate diluent.
# The effect of compounds of the present invention on aggregation of Aβ 1-40 peptide was tested using a Thioflavin-T assay according to previously published methods. Aggregation of Aβ 1-40 incubated alone was measured for comparison. Aβ 1-40 was HFIP treated (as described above) and reconstituted in 100 mM Tris buffer (pH 7.4) to obtain a 100 μmol/L concentration. Stock of investigational compounds (50 mmol/L stock diluted in DMSO) was added to Aβ 1-40 to achieve of a concentration 10 or 100 μmol/L of investigational compound in 100 μmol/L of Aβ 1-40. All incubations were performed over a period of 7 days at 37° C. and the incubation mixture was slowly mixed for 6 hours every 24 h. At the conclusion of the experiment samples containing 15 μg of Aβ 1-40 with and without investigational compounds were added to 1 mL of 50 mM glycine, pH 9.2 and 2 μM of Thioflavin-T (Sigma Chemical, Co.; St. Louis, Mo.). Fluorescence was measured at an excitation of 435 nm and an emission of 485 nm in a Perkin-Elmer LS-50B fluorescence spectrophotometer (Perkin Elmer Instruments, Shelton, Conn.). A time scan of fluorescence was performed and three values after the decay reached a plateau (280, 290, 300 seconds) were averaged. The background fluorescence of 40 μL of Tris buffer added to 2 μM/L of Thioflavin-T solution was subtracted. Samples were run in duplicate. Differences in amount of fibrils formed in the presence of investigational compounds were evaluated by means of one-way ANOVA followed by a Dunnet post-hoc test using Statistica (version 6.1, StatSoft Inc., OK).
# as §1
# [3] = system: SK-N-SH human neuroblastoma cells; experiment: Toxicity by MTT cell viability and LDH release assays; assay type: cell-based; details: 100 μM
# Method: The effect of 0.01-100 μmol/L concentrations of investigational compounds was tested on the viability of the N2a murine neuroblastoma cell line (American Type Culture Collection, Manassas, Va.). N2a cells were grown in Eagle's minimal essential medium with the addition of 10% fetal bovine serum, streptomycin and gentomycin (Sigma, St. Louis, Mo.), harvested with 2% trypsin and plated at 10,000 cells/100 μL per well in flatbottom, 96-well microtiter plates. The cells were allowed to attach to the plate overnight in an incubator (37° C., 5% CO2) and in the following morning stocks of investigational compounds (50 mmol/L stock diluted in DMSO) were added to cells to achieve the final concentration 0.01-100 μmol/L. Adequate amounts of DMSO (Dimethyl sulfoxide, Sigma, St. Louis, Mo.) were added to control cells. Cells were grown in the presence of investigational compounds for 48 h and then their viability was assessed using a metabolic assay, which is based on cleavage of the yellow tetrazolium salt (MTT) to purple formazan crystals by viable cells. The MTT assay (Roche Molecular Biochemicals, Indianapolis, Ind.) was performed according to the manufacturer's instructions. The results from cell culture neurotoxicity studies were evaluated by one-way analysis of variance, followed by a Dunnett's test as a post hoc analysis.
# As shown in FIG. 2 (MTT assay), the compounds were tested for toxicity in SK-N-SH human neuroblastoma cells using MTT cell viability and LDH release (membrane integrity) assays.
# APP [4] = experiment: APP, C99, C83 and sAPP levels in 751APPSW CHO cells (immunoblot, immunostaining); assay type: cell-based, human; details: 751APPSW CHO clone
# APP [5] = experiment: Acute treatment experiment: brain soluble Aβ40, APP, C99 and C83; assay type: in vivo, mice; details: five days ip, ARN2966 50 mg/kg/day, Compound E 3 mg/kg/day
# Method: Furthermore, we conducted an acute treatment experiment where six months old female APPSW/PS1dE9 mice (n=3/group) were treated for five days with ARN2966 (50 mg/kg/day), Compound E (3 mg/kg/day) or Vehicle injected intraperitoneally. Mice were killed three hours after the last injections. The level of soluble Aβ40 was measured in the brain aliquots following diethylamine (DEA) extraction. It was lower in ARN2966 and Compound E treated groups by 39% (p<0.05) and 60% (p<0.05) comparing to vehicle treated mice, respectively (p<0.05; FIG. 6E).
# FIGS. 6.(A, B) ARN2966 treatment reduces load of Aβ plaques (n=10 ARN2966, n=15 Vehicle). (B) Representative photomicrograph of Th-S stained brain sections from vehicle and ARN2966 treated 10 month old, female APPSW/PS1dE9reveal a difference in the load of Aβ plaques. […] (D) Reduced Aβ40 and Aβ42 levels in FA extracted brain homogenate, which represent the total brain content of Aβ peptides in ARN2966 treated animals (ELISA). (E) Reduced soluble Aβ40 level in DEA extracted brain homogenate, of ARN2966 and Compound E treated mice (ELISA). […] Aβ concentrations in (C) (D) and (E) are given per gram of wet brain. All values are given as mean±SEM. Statistical analysis was done using two-tailed unpaired t-test, following confirmation of normal distribution of data using Shapiro-Wilk test.
# T1 sequence (P05067 672-711): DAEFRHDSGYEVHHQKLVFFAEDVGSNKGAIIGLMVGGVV
molecule,measurement,setting,value
COc1ccc(/C=N/Nc2nc3ccccc3n2C)cc1O [ARN4224],reduction of the amount of Aβ oligomers,"Aβ40 [1]; DMEM/F-12 + 0.2% SDS, 4° C.",74%
same,amount of oligomers on SDS-PAGE,Aβ40 [1],reduced amount of oligomers
same,EC50,"Aβ40 [2]; 100 μM HFIP monomerized synthetic Aβ40, 0.1M Tris pH 7.0, 37° C., 8 days, 0-100 μM compound, read-out: EC50 of fibril reduction",44 µM
same,Emax,"Aβ40 [2]; pH 7, read-out: EMAX (% of maximal fibril reduction)",55%
same,toxicity in both MTT and LDH release assays,[3],showed toxicity
"GKLVFNmgA [69b, reference compound]",amount of oligomers on SDS-PAGE,Aβ40 [1],reduced amount of oligomers
"C[C@H](NC(=O)Cc1cc(F)cc(F)c1)C(=O)N[C@H](C(=O)OC(C)(C)C)c1ccccc1 [Compound D, N-[N-(3,5-difluorophenacetyl)-L-alanyl]-S-phenylglycine t-butyl ester, reference compound]","level of APP FL, C99 and C83 in cell lysates",APP [4],"some accumulation of APP FL, and substantial accumulation of C99 and C83; also recorded: modestly increased the APP FL level and substantially increased levels of C83 and C99"
"C[C@H](NC(=O)Cc1cc(F)cc(F)c1)C(=O)N[C@H]1N=C(c2ccccc2)c2ccccc2N(C)C1=O [Compound E, (S,S)-2-[2-(3,5-difluorophenyl)-acetylamino]-N-(1-methyl-2-oxo-5-phenyl-2,3-dihydro-1H-benzo[e][1,4]diazepin-3-yl)-propionamide, reference compound]","level of APP FL, C99 and C83 in cell lysates",APP [4],"some accumulation of APP FL, and substantial accumulation of C99 and C83; also recorded: modestly increased the APP FL level and substantially increased levels of C83 and C99"
same,sAPP (sAPPα and total sAPP stub) in conditioned media,APP [4],increased level of sAPP stubs
same,"APP, C99 and C83 signal in brain homogenate (western immunoblotting)",APP [5],modest increase in C99 and C83 signal
same,lowering of soluble Aβ40 (DEA extraction) in brain vs vehicle,APP [5]; killed three hours after last injection,60%
